Experimental findings from ChEMBL document CHEMBL1139761, “Synthesis and optimization of novel and selective muscarinic M(3) receptor antagonists” (Bioorg Med Chem Lett, 2007) are described below.

For test [1], the target named is Muscarinic acetylcholine receptor M3 (Rattus norvegicus, UniProt P08483). Put plainly: Displacement of [3H]N-methylscopolamine from muscarinic M3 receptor in rat submandibular gland. Format: tissue-based.
Test [2] deals with T1, Muscarinic acetylcholine receptor M2 (Rattus norvegicus, UniProt P10980).
T1 sequence (P10980 whole entry): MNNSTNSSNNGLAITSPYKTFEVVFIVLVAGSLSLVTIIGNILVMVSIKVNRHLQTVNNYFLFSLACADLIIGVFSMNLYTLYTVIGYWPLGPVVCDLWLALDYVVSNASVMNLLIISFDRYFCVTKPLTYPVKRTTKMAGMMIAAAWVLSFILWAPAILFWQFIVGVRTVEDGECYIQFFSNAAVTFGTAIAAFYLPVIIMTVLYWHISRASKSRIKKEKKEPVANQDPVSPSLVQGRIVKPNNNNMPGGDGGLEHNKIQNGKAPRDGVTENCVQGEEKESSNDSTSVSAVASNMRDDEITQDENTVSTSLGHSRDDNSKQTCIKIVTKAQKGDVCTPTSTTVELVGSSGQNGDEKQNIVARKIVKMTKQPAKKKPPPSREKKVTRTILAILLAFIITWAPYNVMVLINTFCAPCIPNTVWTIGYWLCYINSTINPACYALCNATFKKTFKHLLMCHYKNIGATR
Put plainly: Displacement of [3H]N-methylscopolamine from muscarinic M2 receptor in rat heart. On the technique in general: Displacement assays read how much labelled ligand stays bound in the presence of the test substance.

Chain of Muscarinic acetylcholine receptor M3 (P08483 whole entry): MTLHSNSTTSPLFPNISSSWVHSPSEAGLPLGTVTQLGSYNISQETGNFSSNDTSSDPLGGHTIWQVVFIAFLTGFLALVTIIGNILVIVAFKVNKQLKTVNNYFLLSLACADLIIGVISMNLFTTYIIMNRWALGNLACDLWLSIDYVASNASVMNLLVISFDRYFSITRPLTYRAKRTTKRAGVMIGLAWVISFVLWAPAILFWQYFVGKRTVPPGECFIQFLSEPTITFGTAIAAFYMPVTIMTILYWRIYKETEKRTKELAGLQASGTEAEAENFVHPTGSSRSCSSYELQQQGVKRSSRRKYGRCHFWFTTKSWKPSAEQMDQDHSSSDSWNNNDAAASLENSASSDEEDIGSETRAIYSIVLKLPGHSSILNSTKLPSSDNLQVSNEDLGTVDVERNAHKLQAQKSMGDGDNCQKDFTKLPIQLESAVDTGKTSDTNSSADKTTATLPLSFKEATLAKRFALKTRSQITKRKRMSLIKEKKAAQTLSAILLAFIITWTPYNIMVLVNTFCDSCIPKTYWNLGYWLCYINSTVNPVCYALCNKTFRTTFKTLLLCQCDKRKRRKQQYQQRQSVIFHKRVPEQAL

By Ki is commonly meant the dissociation constant of the complex between target and ligand, obtained from inhibition or displacement. Turning to `O=C(N[C@H]1[C@@H]2CN(CCCc3ccccc3)C[C@@H]21)C(O)(c1ccccc1)C1CCCC1` (some centres undefined), the Ki in test [1] came to 0.776 µM; in test [2] it was 2.63 µM.
For the molecule `O=C(N[C@H]1[C@@H]2CN(Cc3ccccc3)C[C@@H]21)C(O)(c1ccccc1)C1CCCCCC1` (some centres undefined), the inhibition constant Ki amounted to 0.0068 µM in test [1] and 0.349 µM in test [2].
On the same counts, the results for `O=C(N[C@H]1[C@@H]2CN(Cc3ccccc3)C[C@@H]21)C(O)c1ccccc1` (some centres undefined) are greater than 1 µM and greater than 1 µM.
Regarding `CC(c1ccccc1)N1C[C@@H]2[C@H](C1)[C@H]2NC(=O)C(O)(c1ccccc1)C1CCCC1` (some centres undefined), the values for the Ki in test [1] and in test [2] were 0.0251 µM and 0.63 µM, respectively.
On the same counts, the results for `CC(c1ccccc1)N1C[C@@H]2[C@H](C1)[C@H]2NC(=O)C(O)(c1ccccc1)C1CCCCCC1` (some centres undefined) are 0.0018 µM and 0.039 µM.
Regarding `O=C(N[C@H]1[C@@H]2CN(Cc3cccs3)C[C@@H]21)C(O)(c1ccccc1)C1CCCC1` (some centres undefined), the Ki turned out to be 0.524 µM in test [1] and 3.98 µM in test [2].
As to `Cc1ccc(C(C)N2C[C@@H]3[C@H](C2)[C@H]3NC(=O)C(O)(c2ccccc2)C2CCCC2)cc1` (some centres undefined), the inhibition constant Ki in test [1] amounted to 0.0589 µM; in test [2], 1.23 µM.
In the case of `O=C(N[C@H]1[C@@H]2CN(CCc3ccc(Cl)cc3)C[C@@H]21)C(O)(c1ccccc1)C1CCCC1` (some centres undefined), the values for the Ki in test [1] and in test [2] were 0.0313 µM and 0.298 µM, respectively.
Regarding `COC(=O)c1ccc(CCN2C[C@@H]3[C@H](C2)[C@H]3NC(=O)C(O)(c2ccccc2)C2CCCC2)cc1` (some centres undefined), the figures for the Ki in test [1] and in test [2] were 0.0436 µM and 0.537 µM, respectively.
On the same counts, the results for `O=C(N[C@H]1[C@@H]2CN(CCc3ccc4c(c3)OCO4)C[C@@H]21)C(O)(c1ccccc1)C1CCCC1` (some centres undefined) are 0.02 µM and 0.277 µM.
As for `O=C(N[C@H]1[C@@H]2CN(Cc3ccc4ccccc4c3)C[C@@H]21)C(O)(c1ccccc1)C1CCCC1` (some centres undefined), the Ki in test [1] was determined as 0.042 µM; in test [2], 0.778 µM.
In the case of `O=C(N[C@H]1[C@@H]2CN(CCc3ccccc3)C[C@@H]21)C(O)(c1ccccc1)C1CCCC1` (some centres undefined), the Ki in test [1] turned out to be 0.0093 µM; in test [2], 0.335 µM.
On the same counts, the results for `CC(C)=CCCN1C[C@@H]2[C@H](C1)[C@H]2NC(=O)C(O)(c1ccccc1)C1CCCC1` (some centres undefined) are 0.033 µM and 1.37 µM.
Turning to `CC(C)=CCCN1C[C@@H]2[C@H](C1)[C@H]2NC(=O)[C@@](O)(c1ccccc1)C1CCCC1`, the Ki was determined as 0.071 µM in test [1] and 1.14 µM in test [2].
With `O=C(N[C@H]1[C@@H]2CN(Cc3ccccc3)C[C@@H]21)C(O)(c1ccccc1)C1CCCC1` (some centres undefined), the Ki in test [1] worked out at 0.096 µM; in test [2], 1.42 µM.
For the molecule `O=C(N[C@H]1[C@@H]2CN(CCc3ccc4c(c3)OCO4)C[C@@H]21)[C@](O)(c1ccccc1)C1CCCC1`, the inhibitory constant (Ki) in test [1] was found to be 0.0123 µM; in test [2] it was 0.646 µM.
Turning to `O=C(N[C@H]1[C@@H]2CN(Cc3ccccc3)C[C@@H]21)C(O)(c1ccccc1)C1CCCCC1` (some centres undefined), the figures for the Ki in test [1] and in test [2] were 0.0317 µM and 0.943 µM, respectively.
The corresponding values for `Cc1ccc(CCN2C[C@@H]3[C@H](C2)[C@H]3NC(=O)C(O)(c2ccccc2)C2CCCC2)cc1C` (some centres undefined) are 0.0436 µM and 0.812 µM.
On to `CC(c1ccccc1)N1C[C@@H]2[C@H](C1)[C@H]2NC(=O)C(O)(c1ccccc1)C1CCCCC1` (some centres undefined), for which the Ki turned out to be 0.0059 µM in test [1] and 0.154 µM in test [2].
Turning to `NC(=O)C(c1ccccc1)(c1ccccc1)[C@@H]1CCN(CCc2ccc3c(c2)CCO3)C1` [DARIFENACIN], the Ki in test [2] was determined as 0.063 µM.
